In ChEMBL document CHEMBL5338822, “The Role of Allylic Strain for Conformational Control in Medicinal Chemistry” (J Med Chem, 2023) one finds IC50 data, which are given here for one compound.

Assay [1] deals with T1, Sphingosine 1-phosphate receptor 1 (Homo sapiens, UniProt P21453). The assay is described as follows: Antagonist activity at human S1P1 transfected in CHO cells incubated for 120 mins by [gamma-35S]GTP binding assay. The format is functional, cell-based.
Assay [2] deals with T1, Sphingosine 1-phosphate receptor 1. The assay is described as follows: Inhibition of human S1P1 expressed in human HeLa cells incubated for 20 mins by FLIPR assay. In kind it is cell-based.

pIC50: −log10 of the molar value.

T1 sequence (P21453 whole entry): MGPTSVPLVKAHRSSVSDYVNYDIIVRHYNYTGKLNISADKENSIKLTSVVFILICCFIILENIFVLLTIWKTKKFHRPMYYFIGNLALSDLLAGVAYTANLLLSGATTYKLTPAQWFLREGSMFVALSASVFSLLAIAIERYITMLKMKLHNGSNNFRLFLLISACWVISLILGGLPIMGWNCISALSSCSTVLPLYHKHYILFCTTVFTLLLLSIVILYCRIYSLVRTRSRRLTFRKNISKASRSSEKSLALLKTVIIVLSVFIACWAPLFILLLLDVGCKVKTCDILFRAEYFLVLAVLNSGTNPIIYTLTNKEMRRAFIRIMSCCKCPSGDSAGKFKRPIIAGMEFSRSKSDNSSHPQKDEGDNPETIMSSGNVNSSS

Regarding `Cc1cc(-c2cccc(NCc3ccc(Cl)c(Cl)c3)c2)ccc1C(=O)N[C@@H](C)C(=O)O`, the results for the pIC50 in assay [1] and in assay [2] were 5.37 and 6.77, respectively.
